Experimental data reported in patent US9670126B2, “Methods of making 15-hydroxy fatty acid derivatives” (Dignity Sciences Limited, priority 2013, dated 2017).

Columns and labels:
[1] = cited from earlier work
[2] = Heat stability trial of HETrE under solvent removal conditions (reflux in 40% MtBE:cyclohexane), UPLC; type: physicochemical
Procedure: (§1) Previously, neat HETrE heated at 50° C.
A heat stability trial was conducted where a solution of HETrE (˜9.1 g) in 500 mL 40% MtBE: cyclohexane was heated at 75° C. (external oil bath temperature) at 400 mbar vacuum (condenser coolant temperature −0° C.). This established a gentle reflux. The solution was protected from light. Samples were withdrawn at various time points, under a nitrogen atmosphere, and analysed by UPLC (252 nm) (FIG. 15).
The conditions were designed to mimic the likely conditions encountered on a plant scale solvent removal from pooled column fractions. […] The reflux was extended over a further 112 hours.

[3] = Solubility (reactor cleaning); details: residues
[4] = Neat HETrE heated at 50° C. under vacuum; type: physicochemical; details: under vacuum (1822-129-4E), 1 major impurity, ester formed with itself
Procedure: as §1

[5] = Storage stability of freeze dried enzyme, judged in the DGLA reaction; details: stored at ambient, atmospheric conditions for two weeks; then 1.8 Munits/g DGLA
Procedure: It was also observed that the freeze dried enzyme supplied had good stability. Although recommended to be stored at −20° C., and desiccated after use, the batch was stored at ambient, atmospheric conditions for two weeks before being utilised in a reaction using the optimised enzyme loadings (1.8 Munits/g DGLA). […] The reaction was carried out in buffer solution to maintain pH and solubilise reaction components. Cysteine, a mild reducing agent, was used in place of sodium borohydride. Use of cysteine enabled the oxidation/reduction reaction to be carried out in one step. In addition no flammable hydrogen was generated during reaction/quench. Furthermore, fewer over-oxidation products were produced, likely due to cysteine's anti-oxidant properties. It is also believed that the addition of the reducing agent at beginning of the process helps to lessen irreversible enzyme inactivation by high concentrations of hydroperoxide, thus leading to lower enzyme requirement (e.g., cost savings) and lower potential for over-oxidation.

In the case of N[C@@H](CSSC[C@H](N)C(=O)O)C(=O)O [cystine], the “solubility in 1M HCl with heating” value ([1]; 1M HCl with heating) is given as 50 mg/mL and the “solubility in basic solutions” value ([1]; basic solutions) is given as “soluble”.

With CCCCC[C@H](O)/C=C/C=C\C/C=C\CCCCCCC(=O)O [15(S)-HETrE, 15-(S)-hydroxyeicosatrienoic acid] the “degradation on extended refluxing” value ([2]; 4.5 days refluxing in 40% MtBE:cyclohexane, external temperature 75° C.) was “did not cause significant degradation”, the “degradation under plant-typical solvent evaporation conditions” value ([2]; in solution and on hot surfaces, timescale of <2 days) was “no significant degradation” and the “solubility in alcohols such as ethanol and methanol, or acetone” value [3] was “readily soluble”. The “degradation of neat material” value [4] was “showed degradation”.

For N[C@@H](CS)C(=O)O [Cysteine], the solubility in ethanol ([1]; 19° C.) is listed as 1.5 g/100 g of ethanol.

B1: freeze dried enzyme: commercial freeze-dried soybean lipoxygenase (protein, UniProt P08170 1-839, looked up)
Seed linoleate …: MFSAGHKIKGTVVLMPKNELEVNPDGSAVDNLNAFLGRSVSLQLISATKADAHGKGKVGKDTFLEGINTSLPTLGAGESAFNIHFEWDGSMGIPGAFYIKNYMQVEFFLKSLTLEAISNQGTIRFVCNSWVYNTKLYKSVRIFFANHTYVPSETPAPLVSYREEELKSLRGNGTGERKEYDRIYDYDVYNDLGNPDKSEKLARPVLGGSSTFPYPRRGRTGRGPTVTDPNTEKQGEVFYVPRDENLGHLKSKDALEIGTKSLSQIVQPAFESAFDLKSTPIEFHSFQDVHDLYEGGIKLPRDVISTIIPLPVIKELYRTDGQHILKFPQPHVVQVSQSAWMTDEEFAREMIAGVNPCVIRGLEEFPPKSNLDPAIYGDQSSKITADSLDLDGYTMDEALGSRRLFMLDYHDIFMPYVRQINQLNSAKTYATRTILFLREDGTLKPVAIELSLPHSAGDLSAAVSQVVLPAKEGVESTIWLLAKAYVIVNDSCYHQLMSHWLNTHAAMEPFVIATHRHLSVLHPIYKLLTPHYRNNMNINALARQSLINANGIIETTFLPSKYSVEMSSAVYKNWVFTDQALPADLIKRGVAIKDPSTPHGVRLLIEDYPYAADGLEIWAAIKTWVQEYVPLYYARDDDVKNDSELQHWWKEAVEKGHGDLKDKPWWPKLQTLEDLVEVCLIIIWIASALHAAVNFGQYPYGGLIMNRPTASRRLLPEKGTPEYEEMINNHEKAYLRTITSKLPTLISLSVIEILSTHASDEVYLGQRDNPHWTSDSKALQAFQKFGNKLKEIEEKLVRRNNDPSLQGNRLGPVQLPYTLLYPSSEEGLTFRGIPNSISI
For B1, the performance after storage [5] was “No deterioration in performance”.
